Our source for the IC50, Papp and logD values is patent US20240383856A1 (Zedira GmbH, priority 2021, published 2024).

The structures appear in SMILES notation. Where only a bound is given, the exact number is not on record here.

Data set [1] has as its target T1, recombinant human transglutaminase 2 (Homo sapiens, UniProt P21980).
T1 construct: purchased Zedira T022
T1 sequence (P21980 1-687): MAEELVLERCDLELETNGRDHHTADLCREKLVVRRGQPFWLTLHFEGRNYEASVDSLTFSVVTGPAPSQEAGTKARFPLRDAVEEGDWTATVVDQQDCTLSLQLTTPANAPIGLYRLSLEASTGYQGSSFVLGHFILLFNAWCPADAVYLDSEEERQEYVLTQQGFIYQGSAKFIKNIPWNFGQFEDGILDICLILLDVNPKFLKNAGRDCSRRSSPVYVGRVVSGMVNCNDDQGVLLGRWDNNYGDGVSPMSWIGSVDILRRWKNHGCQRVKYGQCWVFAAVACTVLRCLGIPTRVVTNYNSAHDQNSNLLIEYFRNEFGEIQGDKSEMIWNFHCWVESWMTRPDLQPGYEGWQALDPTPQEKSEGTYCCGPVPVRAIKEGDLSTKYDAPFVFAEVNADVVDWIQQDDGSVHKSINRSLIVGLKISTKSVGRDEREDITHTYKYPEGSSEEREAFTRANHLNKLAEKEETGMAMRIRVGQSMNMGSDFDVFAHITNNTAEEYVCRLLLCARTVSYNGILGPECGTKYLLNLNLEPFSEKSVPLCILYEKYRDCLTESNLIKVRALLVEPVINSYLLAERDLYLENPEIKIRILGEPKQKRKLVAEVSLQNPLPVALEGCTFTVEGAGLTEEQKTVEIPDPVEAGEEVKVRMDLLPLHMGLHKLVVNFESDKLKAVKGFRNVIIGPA
The experiment in a line: Transglutaminase assay (DCC-assay): incorporation of dansylcadaverine into dimethylcasein. The format is biochemical. The following applies: recombinant human TG2 10 nM; dansylcadaverine incorporation into dimethylcasein; read-out: IC50 TG2. An outline of the steps: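 Recombinant human TG2 (10 nM final) incorporates dansylcadaverine into N,N-dimethylcasein. Reaction mix: 50 mM Tris-HCl, 10 mM CaCl2, 10 mM glutathione, 2.5% glycerol, 16.7 µM dansylcadaverine, 4 µM dimethylcasein, 200 mM NaCl, pH 8.0. Fluorescence (ex 330/em 500 nm) was followed 30 min at 37 °C; the 20–30 min slope, expressed as % of 2% DMSO control, gave IC50.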

Data set [2] in a line: Caco-2 permeability assay (CacoReady kit). Conditions: human, Caco-2, Caco-2 barrier, CacoReady kit; above 1×10^−6 cm/s classified as permeable. In kind it is in vitro ADME. In short, it runs like this: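 Apparent permeability coefficients (Papp) were measured across Caco-2 cell barriers using a ready-to-use kit run per the supplier's protocol. Values serve as a predictor of oral/intestinal bioavailability.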
For orientation: Caco-2 monolayers are a common model of the intestinal barrier.

Data set [3] can be described thus: logD by shake flask method (octanol / PBS pH 7.4, HPLC). The format is physicochemical. The following applies: octanol / PBS pH 7.4, shake flask. In short, it runs like this: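 Shake-flask partition of compound between octanol and phosphate-buffered saline at pH 7.4, with each phase quantified by HPLC to give LogD.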

As for `CCC12CC3CC(C1)C(NC(=O)Cn1cccc(NC(=O)[C@H](CCC(=O)C(=O)NC)NC(=O)c4ccc5cnccc5n4)c1=O)C(C3)C2` (stereo partly drawn) [II-187, (S)-N1-(1-(2-(5-ethyladamantane-2-amino)-2-oxoethyl)-2-oxo-1,2-dihydropyridin-3-yl)-N6-methyl-2-(1,6-naphthyridine-2-carboxamido)-5-oxohexanediamide], the IC50 – broadly, the concentration that inhibits the measured activity by half – in data set [1] is 400 to 2500 nM. Also, the Papp – broadly, the rate of passage across a membrane or cell layer, normalised by area and donor concentration – in data set [2] was 1 to 10 ×10⁻⁶ cm/s. The log distribution coefficient (logD) (commonly the decadic logarithm of the distribution of all forms, ionised or not, between an organic phase and buffer at a given pH) in data set [3] fell in the range of 3 to 5.
Take `CNC(=O)C(=O)CC[C@H](NC(=O)c1nccc2cnccc12)C(=O)Nc1cccn(CC(=O)NC23CCC(C2)C3)c1=O` [II-188, (S)-N1-(1-(2-(bicyclo[2.1.1]hexan-1-ylamino)-2-oxoethyl)-2-oxo-1,2-dihydropyridin-3-yl)-N6-methyl-2-(2,6-naphthyridine-1-carboxamido)-5-oxohexanediamide]: the IC50 in data set [1] is 400 to 2500 nM. The Papp in data set [2] is < 1 ×10⁻⁶ cm/s. Moreover, the logD in data set [3] is < 1.
With `CNC(=O)C(=O)CC[C@H](NC(=O)c1nonc1N)C(=O)Nc1cccn(CC(=O)NC23CC(C2)C3)c1=O` [II-189, (S)-2-(4-amino-1,2,5-oxadiazole-3-carboxamido)-N1-(1-(2-(bicyclo[1.1.1]pentan-1-ylamino)-2-oxoethyl)-2-oxo-1,2-dihydropyridin-3-yl)-N6-methyl-5-oxohexanediamide], the IC50 in data set [1] was 400 to 2500 nM. The apparent permeability (Papp) in data set [2] is < 1 ×10⁻⁶ cm/s. In addition, the log distribution coefficient (logD) in data set [3] is < 1.
For the compound `CNC(=O)C(=O)CC[C@H](NC(=O)c1cc2ccc(N(C)C)cc2o1)C(=O)Nc1cccn(CC(=O)NC23CC(C2)C3)c1=O` [II-190, (S)-N1-(1-(2-(bicyclo[1.1.1]pentan-1-ylamino)-2-oxoethyl)-2-oxo-1,2-dihydropyridin-3-yl)-2-(6-(dimethylamino)benzofuran-2-carboxamido)-N6-methyl-5-oxohexanediamide], the half-maximal inhibitory concentration (IC50) in data set [1] fell in the range of 400 to 2500 nM. Moreover, in data set [2], the Papp was < 1 ×10⁻⁶ cm/s. Moreover, in data set [3], the pH-dependent lipophilicity (logD) is < 1.
For `CNC(=O)C(=O)CC[C@H](NC(=O)c1cnc(NC(C)=O)s1)C(=O)Nc1cccn(CC(=O)NC23CC(C2)C3)c1=O` [II-191, (S)-2-(2-acetamidothiazole-5-carboxamido)-N1-(1-(2-(bicyclo[1.1.1]pentan-1-ylamino)-2-oxoethyl)-2-oxo-1,2-dihydropyridin-3-yl)-N6-methyl-5-oxohexanediamide], in that order: 400 to 2500 nM, < 1 ×10⁻⁶ cm/s and < 1.
For `CNC(=O)C(=O)CC[C@H](NC(=O)c1c[nH]c(C(N)=O)c1)C(=O)Nc1cccn(CC(=O)NC23CC(C2)C3)c1=O` [II-192, (S)-N4-(1-(1-(2-(bicyclo[1.1.1]pentan-1-ylamino)-2-oxoethyl)-2-oxo-1,2-dihydropyridin-3-ylamino)-6-(methylamino)-1,5,6-trioxohexan-2-yl)-1H-pyrrole-2,4-dicarboxamide], in that order: 400 to 2500 nM, < 1 ×10⁻⁶ cm/s and < 1.
For `CNC(=O)C(=O)CC[C@H](NC(=O)c1coc(S(N)(=O)=O)c1)C(=O)Nc1cccn(CC(=O)NC2C3CC4CC2CC(NC(C)=O)(C4)C3)c1=O` (stereo partly drawn) [II-193, (S)-N1-(1-(2-(1-acetylamino-4-aminoadamantane)-2-oxoethyl)-2-oxo-1,2-dihydropyridin-3-yl)-N6-methyl-5-oxo-2-(5-sulfamoylfuran-3-carboxamido)hexanediamide], in that order: 400 to 2500 nM, < 1 ×10⁻⁶ cm/s and < 1.
Regarding `CNC(=O)C(=O)CC[C@H](NC(=O)c1ccc2occc2c1)C(=O)Nc1cccn(CC(=O)NC2C3CC4CC2CC(NC(C)=O)(C4)C3)c1=O` (stereo partly drawn) [II-194, (S)-2-(benzofuran-5-carboxamido)-N1-(1-(2-(1-acetylamino-4-aminoadamantane)-2-oxoethyl)-2-oxo-1,2-dihydropyridin-3-yl)-N6-methyl-5-oxohexanediamide], in data set [1], the IC50 is 40 to 400 nM. The Papp in data set [2] was < 1 ×10⁻⁶ cm/s. Besides, the logD in data set [3] is < 1.
For `CNC(=O)C(=O)CC[C@H](NC(=O)c1ccc2ccoc2c1)C(=O)Nc1cccn(CC(=O)NC2C3CC4CC2CC(C(N)=O)(C4)C3)c1=O` (stereo partly drawn) [II-195, (S)-2-(benzofuran-6-carboxamido)-N1-(1-(2-(4-aminoadamantane-1-carboxamide)-2-oxoethyl)-2-oxo-1,2-dihydropyridin-3-yl)-N6-methyl-5-oxohexanediamide], in that order: 40 to 400 nM, < 1 ×10⁻⁶ cm/s and < 1.
For the compound `CNC(=O)C(=O)CC[C@H](NC(=O)c1nc(C2(C)CC2)no1)C(=O)Nc1cccn(CC(=O)NC2C3CC4CC2CC(C(N)=O)(C4)C3)c1=O` (stereo partly drawn) [II-196, (S)-N1-(1-(2-(4-aminoadamantane-1-carboxamide)-2-oxoethyl)-2-oxo-1,2-dihydropyridin-3-yl)-N6-methyl-2-(3-(1-methylcyclopropyl)-1,2,4-oxadiazole-5-carboxamido)-5-oxohexanediamide], the IC50 in data set [1] lay within 400 to 2500 nM. For the same compound, the Papp in data set [2] is < 1 ×10⁻⁶ cm/s. The logD in data set [3] was < 1.
As for `CNC(=O)C(=O)CC[C@H](NC(=O)c1noc(C)n1)C(=O)Nc1cccn(CC(=O)NC23CC(C2)C3)c1=O` [II-197, (S)-N1-(1-(2-(bicyclo[1.1.1]pentan-1-ylamino)-2-oxoethyl)-2-oxo-1,2-dihydropyridin-3-yl)-N6-methyl-2-(5-methyl-1,2,4-oxadiazole-3-carboxamido)-5-oxohexanediamide], the IC50 in data set [1] is 400 to 2500 nM. The Papp in data set [2] was < 1 ×10⁻⁶ cm/s. Moreover, the log distribution coefficient (logD) in data set [3] was < 1.
Consider `CNC(=O)C(=O)CC[C@H](NC(=O)c1csnn1)C(=O)Nc1cccn(CC(=O)NC23CC(C2)C3)c1=O` [II-198, (S)-N1-(1-(2-(bicyclo[1.1.1]pentan-1-ylamino)-2-oxoethyl)-2-oxo-1,2-dihydropyridin-3-yl)-N6-methyl-5-oxo-2-(1,2,3-thiadiazole-4-carboxamido)hexanediamide], for which the IC50 in data set [1] lay within 40 to 400 nM. Further, the apparent permeability coefficient (Papp) in data set [2] is < 1 ×10⁻⁶ cm/s. In data set [3], the log distribution coefficient (logD) is < 1.
For `CNC(=O)C(=O)CC[C@H](NC(=O)c1ncns1)C(=O)Nc1cccn(CC(=O)NC23CC(C2)C3)c1=O` [II-199, (S)-N1-(1-(2-(bicyclo[1.1.1]pentan-1-ylamino)-2-oxoethyl)-2-oxo-1,2-dihydropyridin-3-yl)-N6-methyl-5-oxo-2-(1,2,4-thiadiazole-5-carboxamido)hexanediamide], in that order: 40 to 400 nM, < 1 ×10⁻⁶ cm/s and < 1.
Turning to `CNC(=O)C(=O)CC[C@H](NC(=O)c1nncs1)C(=O)Nc1cccn(CC(=O)NC23CC(C2)C3)c1=O` [II-200, (S)-N1-(1-(2-(bicyclo[1.1.1]pentan-1-ylamino)-2-oxoethyl)-2-oxo-1,2-dihydropyridin-3-yl)-N6-methyl-5-oxo-2-(1,3,4-thiadiazole-2-carboxamido)hexanediamide], the IC50 in data set [1] fell in the range of 40 to 400 nM. For the same compound, the Papp in data set [2] was < 1 ×10⁻⁶ cm/s. Further, in data set [3], the logD is < 1.
For `CNC(=O)C(=O)CC[C@H](NC(=O)c1snnc1C1CC1)C(=O)Nc1cccn(CC(=O)NC23CC(C2)C3)c1=O` [II-201, (S)-N1-(1-(2-(bicyclo[1.1.1]pentan-1-ylamino)-2-oxoethyl)-2-oxo-1,2-dihydropyridin-3-yl)-2-(4-cyclopropyl-1,2,3-thiadiazole-5-carboxamido)-N6-methyl-5-oxohexanediamide], in that order: 40 to 400 nM, < 1 ×10⁻⁶ cm/s and < 1.
